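Dose response: 5 concentrations. Exposure: 48 h. Format: 96-well plates. Endpoint: linear interpolation; highest concentration if not reached. GI50 marks 50% less growth. Definition used: TGI = concentration required for complete inhibition of growth.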
Assays:
Assay in all cases: NCI tumour cell line growth inhibition, 48 h
[1] = system: SF-268 CNS
[2] = system: SNB-75 CNS
[3] = system: EKVX NSCLC
[4] = system: NCI-H23 lung
[5] = system: OVCAR-8 ovarian
[6] = system: HOP-62 NSCLC
[7] = system: IGROV1 ovarian
[8] = system: HL-60(TB) leukemia
[9] = system: OVCAR-3 ovarian
[10] = system: NCI/ADR-RES ovarian

Structure (SMILES) | GI50 [1] [µM] | TGI [1] [µM] | GI50 [2] [µM] | TGI [2] [µM] | TGI [3] [µM] | GI50 [4] [µM] | TGI [4] [µM] | GI50 [5] [µM] | TGI [5] [µM] | GI50 [6] [µM] | TGI [6] [µM] | GI50 [7] [µM] | TGI [7] [µM] | GI50 [8] [µM] | TGI [8] [µM] | GI50 [9] [µM] | TGI [9] [µM] | GI50 [10] [µM] | TGI [10] [µM] | GI50 [3] [µM]
CCC[CH2][Ge]([CH2]CCC)([CH2]CCC)[O]C(=O)C(OC(C)=O)c1ccccc1 (configuration not stated) | 1.46 | 27.8 | 0.973 | 25.2 | 9.37 | 0.0395 | 6.24 | 9.77 | 22.8 | 2.18 | 16.1 | 11.2 | 25.8 | 0.314 | 2.09 | 0.731 | 8.52 |  |  | 
Cc1cccc2c1ccc1c3occ(C)c3c(=O)oc21 | > 100 | > 100 | 45.7 | > 100 | > 100 | > 100 | > 100 | > 100 | > 100 | > 100 | > 100 | > 100 | > 100 |  |  | > 100 | > 100 | > 100 | > 100 | 76.6
CC1OC(n2cc(I)c(=O)[nH]c2=O)C=CC1=O (configuration not stated) |  | 27.1 |  | 31.1 | 32.3 |  | 30.7 |  | 30.8 |  | 32.7 |  | 39.2 |  | 24.6 |  | 31.5 |  |  | 
N#CC(C#N)=Cc1ccc(Oc2ccccc2)cc1 |  | > 69.5 |  | > 91.7 | > 100 |  | 52.2 |  | 73.7 |  | > 100 |  | > 69 |  | 55.1 |  | > 100 |  |  | 
O=[N+]([O-])c1cc([N+](=O)[O-])c(C(Cl)C(Cl)c2ccccc2)cc1C(Cl)C(Cl)c1ccccc1 (configuration not stated) |  | 4.02 |  | 5.17 | 4.28 |  | 3.72 |  | 4.62 |  | 11.9 |  | 7.53 |  | > 100 |  | 5.06 |  |  | 
COC(=O)C(C(=O)C(=O)Nc1ccc([N+](=O)[O-])cc1)c1nc2cc(C)c(C)cc2[nH]c1=O (configuration not stated) |  | > 100 |  | > 100 | > 100 |  | > 100 |  |  |  | > 100 |  | > 100 |  | > 100 |  | > 100 |  |  | 
COC(=O)C1=C(C)N(NC(=O)c2cccc(Cl)c2)C(C)(O)C12CCOC2=O (configuration not stated) |  | > 100 |  | > 100 | > 100 |  |  |  | > 100 |  | > 100 |  | > 100 |  |  |  | > 100 |  |  | 
CCOc1ccc(N=Nc2c(-c3ccccc3)nn(C(=O)CC(=O)Nc3cccc(C)c3)c2-c2ccccc2)cc1 |  | > 100 |  | > 100 | > 100 |  | > 100 |  | > 100 |  | > 100 |  | > 100 |  | > 100 |  | > 100 |  |  | 
C/C=C/C=C\C(=O)C1c2cccc(O)c2C(=O)c2c(O)cc(C)cc21 (configuration not stated) |  | 2.05 |  | 2.74 | 13.4 |  | 3.65 |  | 3.19 |  | 4.27 |  | 2.91 |  | 7.04 |  | 2.2 |  |  | 
C[CH2][Sn]([Cl])([CH2]C)[CH2]C | 1.59 | 7.94 | 0.255 | 0.549 | 11.6 | 0.556 | 4.84 | 1.69 | 4.35 | 1.04 | 4.14 | 0.646 | 5.22 |  |  | 1.34 | 6.61 |  |  | 1.06
Cc1cn2c(/C=N/N=C(N)N)c(-c3cc(Cl)sc3Cl)nc2s1 |  |  |  |  |  | 0.904 | 1.66 | 1.19 | 2.9 |  |  |  |  |  |  |  |  | 5.57 | 13.3 | 
CNC(=O)OCc1cc2ccncc2c2c1[nH]c1ccccc12 |  | > 41.8 |  | > 80.3 | > 100 |  | > 100 |  | > 100 |  | 55 |  | > 100 |  | > 100 |  | > 100 |  |  | 
CCOC(=O)NN(C(=O)OCC)C(C(=O)c1ccc(Cl)cc1)=C1NCCN1 |  | > 100 |  | > 100 | > 100 |  | > 100 |  | > 100 |  | > 100 |  | > 100 |  | > 100 |  | > 100 |  |  | 
COc1cc(C2C(C(=O)OCc3ccccc3)=C(C)NC(C)=C2C(=O)OCc2ccccc2)cc(OC)c1OC | 5.17 | > 100 | 4.69 | > 100 | > 100 |  |  | 4.52 | > 100 | 12.1 | 66.5 |  |  |  |  | 4.99 | > 100 | 3.06 | > 100 | 2.81
O=C(NCc1cccs1)OC1CC2CCC1C2 (configuration not stated) |  | > 100 |  |  | > 100 |  | > 100 |  | > 100 |  | > 100 |  | > 100 |  | > 100 |  | > 100 |  | > 100 | 
CCc1cccc(CC)c1NC(=O)c1ccn2c1CCc1cnc(Nc3ccc(N4CCN(C)CC4)cc3OC)nc1-2 | 3.14 | 17.8 | 1.87 | 7.47 | 19.6 | 4.48 | 27 | 2.19 | 32.8 |  |  | 2.52 | 19.4 |  |  | 1.55 | 4.22 | 1.33 | > 100 | 3.02
CC(=O)Nc1ccc(S(=O)(=O)c2ccc(NC(C)=O)cc2)cc1 |  |  |  |  | > 100 | > 100 | > 100 | > 100 | > 100 | > 100 | > 100 | > 100 | > 100 | > 100 | > 100 | 61.8 | > 100 | > 100 | > 100 | 64
CC(C)N(C(=O)C12C3C4C5C3C1(C#N)C5C42)C(C)C (configuration not stated) |  | > 100 |  | > 100 | > 100 |  | > 100 |  | > 100 |  | > 100 |  | > 100 |  | > 100 |  | > 100 |  |  | 
CCN1C(=O)C(N=[N+]=[N-])(c2ccccc2)C(=O)c2ccccc21 (configuration not stated) |  | > 100 |  | > 100 | > 100 |  | > 100 |  |  |  | > 100 |  | > 100 |  | > 100 |  | > 100 |  |  | 
